Results published in US9963467B2, “Boronic acid derivatives and therapeutic uses thereof” (Rempex Pharmaceuticals, Inc., priority 2014, dated 2018).

Columns and labels:
[1] = system: KP1005 (CTX-M-14); experiment: Aztreonam potentiation (MPC@4), KP1005; format: cell-based; conditions: BLI with aztreonam at 4 μg/mL
[2] = system: KP1009 (CTX-M-15); experiment: organism not typed; format: cell-based
[3] = system: ec308 (SHV-5); experiment: Aztreonam potentiation (MPC@4), ec308; format: cell-based; conditions: BLI with aztreonam at 4 μg/mL
[4] = system: KP1010 (SHV-12); experiment: Aztreonam potentiation (MPC@4), KP1010; format: cell-based
[5] = system: ECL1002; experiment: Aztreonam potentiation (MPC@4), ECL1002; format: cell-based; conditions: BLI with aztreonam at 4 μg/mL
[6] = system: EC1010 (CMY-6); experiment: organism not typed; format: cell-based
[7] = system: KP1005 (CTX-M-14); experiment: Tigemonam potentiation (MPC@4), KP1005; format: cell-based; conditions: BLI with tigemonam at 4 μg/mL
[8] = system: KP1009 (CTX-M-15); experiment: Tigemonam potentiation (MPC@4), KP1009; format: cell-based; conditions: BLI with tigemonam at 4 μg/mL
[9] = system: ec308 (SHV-5); experiment: Tigemonam potentiation (MPC@4), ec308; format: cell-based
[10] = system: KP1010 (SHV-12); experiment: Tigemonam potentiation (MPC@4), KP1010; format: cell-based
[11] = system: ec302 (TEM-10); experiment: Tigemonam potentiation (MPC@4), ec302; format: cell-based
[12] = system: ECL1002; experiment: Tigemonam potentiation (MPC@4), ECL1002; format: cell-based; conditions: BLI with tigemonam at 4 μg/mL
[13] = molecular target: Pa AmpC (Pseudomonas aeruginosa, UniProt P24735); experiment: Ki, nitrocefin cleavage by purified enzyme, Pa AmpC; format: biochemical; conditions: nitrocefin reporter substrate; read-out: Ki (Pa AmpC, NCF)
Chain of Pa AmpC (P24735 27-397): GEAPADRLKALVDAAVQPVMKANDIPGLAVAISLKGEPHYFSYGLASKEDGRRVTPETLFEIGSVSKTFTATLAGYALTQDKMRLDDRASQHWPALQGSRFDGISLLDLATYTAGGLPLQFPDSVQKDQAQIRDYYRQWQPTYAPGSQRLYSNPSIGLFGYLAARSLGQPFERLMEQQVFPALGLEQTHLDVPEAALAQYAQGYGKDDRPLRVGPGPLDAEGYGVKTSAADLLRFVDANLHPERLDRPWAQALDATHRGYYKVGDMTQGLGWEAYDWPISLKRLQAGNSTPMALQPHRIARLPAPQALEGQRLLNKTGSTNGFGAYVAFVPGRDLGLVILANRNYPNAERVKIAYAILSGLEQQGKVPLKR
Method in brief: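 Inhibitor potency was expressed as Ki, measured spectrophotometrically against purified enzyme using nitrocefin cleavage read at 490 nm after a 10 min room-temperature preincubation with inhibitor.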

[14] = system: KP1004 (KPC-2); experiment: Biapenem potentiation (MPC@1), KP1004; conditions: BLI with biapenem at 1 μg/mL
[15] = system: KP1086 (OXA-48); experiment: Biapenem potentiation (MPC@1), KP1086; conditions: BLI with biapenem at 1 μg/mL
[16] = system: ec302 (TEM-10); experiment: Aztreonam potentiation (MPC@4), ec302; format: cell-based; conditions: BLI with aztreonam at 4 μg/mL
[17] = system: EC1010 (CMY-6); experiment: Tigemonam potentiation (MPC@4), EC1010; format: cell-based; conditions: BLI with tigemonam at 4 μg/mL
[18] = molecular target: CTX-M-14 (Escherichia coli, UniProt Q9L5C7); experiment: Ki, nitrocefin cleavage by purified enzyme, CTX-M-14; format: biochemical; conditions: nitrocefin reporter substrate; read-out: Ki (CTX-M-14, NCF)
Chain of CTX-M-14 (Q9L5C7 29-291): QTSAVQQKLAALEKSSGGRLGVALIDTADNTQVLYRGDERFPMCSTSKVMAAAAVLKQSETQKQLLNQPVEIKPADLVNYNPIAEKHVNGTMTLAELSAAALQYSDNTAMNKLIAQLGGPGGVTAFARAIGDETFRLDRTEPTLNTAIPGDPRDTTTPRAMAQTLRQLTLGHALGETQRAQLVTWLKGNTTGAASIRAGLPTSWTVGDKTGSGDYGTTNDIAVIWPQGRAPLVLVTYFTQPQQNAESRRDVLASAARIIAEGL
Method in brief: (§1)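 10 min RT preincubation, enzyme with inhibitor series in reaction buffer. Substrate nitrocefin; kinetic read 490 nm, 10 sec intervals, 10 min total.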

[19] = molecular target: SHV-12 (Klebsiella pneumoniae, UniProt P0AD64, E235K/G234S/L31Q); experiment: Ki, nitrocefin cleavage by purified enzyme, SHV-12; format: biochemical; conditions: nitrocefin reporter substrate; read-out: Ki (SHV-12, NCF)
Chain of SHV-12 (P0AD64 22-286 L31Q/G234S/E235K): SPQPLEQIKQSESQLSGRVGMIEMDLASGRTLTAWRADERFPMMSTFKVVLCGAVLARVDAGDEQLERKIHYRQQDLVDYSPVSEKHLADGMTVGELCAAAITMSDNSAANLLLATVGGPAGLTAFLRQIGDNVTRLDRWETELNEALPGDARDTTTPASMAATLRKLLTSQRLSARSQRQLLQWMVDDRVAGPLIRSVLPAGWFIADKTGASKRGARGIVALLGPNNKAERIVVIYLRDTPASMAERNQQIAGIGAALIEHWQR
Method in brief: as §1

[20] = molecular target: KPC-2 (Klebsiella pneumoniae, UniProt Q9F663); experiment: Ki, nitrocefin cleavage by purified enzyme, KPC-2; format: biochemical; conditions: nitrocefin reporter substrate; read-out: Ki (KPC-2, NCF)
Chain of KPC-2 (Q9F663 25-293, looked up, species assumed): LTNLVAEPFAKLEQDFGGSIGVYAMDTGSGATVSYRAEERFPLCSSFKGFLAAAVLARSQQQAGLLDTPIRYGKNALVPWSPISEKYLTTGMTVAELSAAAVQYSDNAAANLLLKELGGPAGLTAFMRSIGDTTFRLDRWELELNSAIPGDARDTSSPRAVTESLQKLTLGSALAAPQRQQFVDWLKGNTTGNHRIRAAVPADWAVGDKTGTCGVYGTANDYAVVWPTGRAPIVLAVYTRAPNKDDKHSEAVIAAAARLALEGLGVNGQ
Method in brief: as §1

[21] = molecular target: P99 (Enterobacter cloacae, UniProt P05364); experiment: Ki, nitrocefin cleavage by purified enzyme, P99; format: biochemical; conditions: nitrocefin reporter substrate; read-out: Ki (P99, NCF)
Chain of P99 (P05364 21-381): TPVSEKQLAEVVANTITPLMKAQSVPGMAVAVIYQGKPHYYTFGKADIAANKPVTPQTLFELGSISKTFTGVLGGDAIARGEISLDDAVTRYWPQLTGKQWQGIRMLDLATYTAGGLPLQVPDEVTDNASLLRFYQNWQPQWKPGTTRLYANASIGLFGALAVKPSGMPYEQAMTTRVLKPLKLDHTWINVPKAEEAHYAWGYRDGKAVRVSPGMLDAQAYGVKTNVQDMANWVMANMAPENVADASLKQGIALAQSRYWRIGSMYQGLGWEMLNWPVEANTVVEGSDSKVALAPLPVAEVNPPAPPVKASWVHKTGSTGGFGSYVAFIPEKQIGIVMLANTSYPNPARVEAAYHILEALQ
Method in brief: as §1

[22] = molecular target: OXA-48 (Klebsiella pneumoniae, UniProt Q6XEC0); experiment: Ki, nitrocefin cleavage by purified enzyme, OXA-48; format: biochemical; conditions: nitrocefin reporter substrate; read-out: Ki (OXA-48, NCF)
Chain of OXA-48 (Q6XEC0 23-265, looked up, species assumed): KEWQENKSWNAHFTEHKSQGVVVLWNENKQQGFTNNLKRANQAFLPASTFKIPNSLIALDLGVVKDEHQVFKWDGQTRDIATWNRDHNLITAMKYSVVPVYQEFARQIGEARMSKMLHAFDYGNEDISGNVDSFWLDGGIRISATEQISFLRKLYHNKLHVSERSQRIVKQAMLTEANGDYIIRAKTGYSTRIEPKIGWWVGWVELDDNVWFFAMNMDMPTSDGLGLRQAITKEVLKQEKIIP
Method in brief: as §1

[23] = system: KP1004 (KPC-2); experiment: Aztreonam potentiation (MPC@4), KP1004; format: cell-based; conditions: BLI with aztreonam at 4 μg/mL
[24] = Monomer content of pH adjusted aqueous solutions (LC-UV); format: physicochemical; conditions: 1 mg/mL aqueous salt solution, pH adjusted to 7.6 to 8, LC-UV
Method in brief: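 Aqueous solutions at 1.00, 10.0 or 100 mg/mL (active fraction) brought to pH 7.6–8 with acid or base, compound fully dissolved. Injected within half an hour of preparation onto C18 reversed-phase LC (0.1% TFA water / 0.085% TFA methanol gradient); UV detection at 220, 254 and 300 nm.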

Compound	AZT MPC4 CTX-M-14 KP1005 [1]	AZT MPC4 CTX-M-15 KP1009 [2]	AZT MPC4 ECL1002 [5]	AZT MPC4 CMY-6 EC1010 [6]	TIG MPC4 CTX-M-14 KP1005 [7]	TIG MPC4 CTX-M-15 KP1009 [8]	TIG MPC4 SHV-5 ec308 [9]	TIG MPC4 SHV-12 KP1010 [10]	TIG MPC4 TEM-10 ec302 [11]	TIG MPC4 ECL1002 [12]	Ki [13] [µM]	BPM MPC1 KP1004 KPC-2 [14]	BPM MPC1 OXA-48 KP1086 [15]	AZT MPC4 TEM-10 ec302 [16]	TIG MPC4 CMY-6 EC1010 [17]	Ki [18] [µM]	Ki [19] [µM]	Ki [20] [µM]	Ki [21] [µM]	Ki [22] [µM]	further results
CSCC(=O)N[C@H]1Cc2cccc(C(=O)O)c2OB1O [A, reference compound]	X (MIC of less than 1 ng/mL)	X (key: X: MIC of less than 1 ng/mL; Y: MIC of 1 μg/mL to 10 μg/mL; Z: MIC of greater than 10 μg/mL)	X (MIC of less than 1 ng/mL)	X (key: X: MIC of less than 1 ng/mL; Y: MIC of 1 μg/mL to 10 μg/mL; Z: MIC of greater than 10 μg/mL)	Y (MIC of 1 μg/mL to 10 μg/mL)	X (MIC of less than 1 μg/mL)	X (key: X: MIC of less than 1 μg/mL; Y: MIC of 1 μg/mL to 10 μg/mL; Z: MIC of greater than 10 μg/mL)	X (key: X: MIC of less than 1 μg/mL; Y: MIC of 1 μg/mL to 10 μg/mL; Z: MIC of greater than 10 μg/mL)	Y (key: X: MIC of less than 1 ng/mL; Y: MIC of 1 μg/mL to 10 μg/mL; Z: MIC of greater than 10 μg/mL)	X (MIC of less than 1 μg/mL)	0.001 to 0.01	X (MIC of less than 1 μg/mL)	Y (MIC of 1 μg/mL to 10 μg/mL)	–	–	–	–	–	–	–	AZT MPC4 SHV-5 ec308 [3]: X (MIC of less than 1 ng/mL); AZT MPC4 SHV-12 KP1010 [4]: X (key: X: MIC of less than 1 ng/mL; Y: MIC of 1 μg/mL to 10 μg/mL; Z: MIC of greater than 10 μg/mL)
O=CN[C@H]1Cc2ccc(F)c(C(=O)O)c2OB1O [Compound 6, (R)-7-fluoro-3-formamido-2-hydroxy-3,4-dihydro-2H-benzo[e][1,2]oxaborinine-8-carboxylic acid]	Y (MIC of 1 μg/mL to 10 μg/mL)	Y (key: X: MIC of less than 1 ng/mL; Y: MIC of 1 μg/mL to 10 μg/mL; Z: MIC of greater than 10 μg/mL)	Y (MIC of 1 μg/mL to 10 μg/mL)	Y (key: X: MIC of less than 1 ng/mL; Y: MIC of 1 μg/mL to 10 μg/mL; Z: MIC of greater than 10 μg/mL)	Y (MIC of 1 μg/mL to 10 μg/mL)	Y (MIC of 1 μg/mL to 10 μg/mL)	Y (key: X: MIC of less than 1 ng/mL; Y: MIC of 1 μg/mL to 10 μg/mL; Z: MIC of greater than 10 μg/mL)	Y (key: X: MIC of less than 1 ng/mL; Y: MIC of 1 μg/mL to 10 μg/mL; Z: MIC of greater than 10 μg/mL)	Z (key: X: MIC of less than 1 ng/mL; Y: MIC of 1 μg/mL to 10 μg/mL; Z: MIC of greater than 10 μg/mL)	X (MIC of less than 1 μg/mL)	> 0.01	X (MIC of less than 1 μg/mL)	Y (MIC of 1 μg/mL to 10 μg/mL)	Y (MIC of 1 μg/mL to 10 μg/mL)	X (MIC of less than 1 μg/mL)	< 0.001	< 0.001	> 0.01	> 0.01	0.001 to 0.01	AZT MPC4 SHV-5 ec308 [3]: Y (MIC of 1 μg/mL to 10 μg/mL)
CSCC(=O)N[C@H]1Cc2ccc(SCC3CCNCC3)c(C(=O)O)c2OB1O [Compound 24, (R)-2-hydroxy-3-(2-(methylthio)acetamido)-7-(piperidin-4-ylmethylthio)-3,4-dihydro-2H-benzo[e][1,2]oxaborinine-8-carboxylic acid]	Y (MIC of 1 μg/mL to 10 μg/mL)	Y (key: X: MIC of less than 1 ng/mL; Y: MIC of 1 μg/mL to 10 μg/mL; Z: MIC of greater than 10 μg/mL)	Y (MIC of 1 μg/mL to 10 μg/mL)	Y (key: X: MIC of less than 1 ng/mL; Y: MIC of 1 μg/mL to 10 μg/mL; Z: MIC of greater than 10 μg/mL)	Y (MIC of 1 μg/mL to 10 μg/mL)	Y (MIC of 1 μg/mL to 10 μg/mL)	Y (key: X: MIC of less than 1 ng/mL; Y: MIC of 1 μg/mL to 10 μg/mL; Z: MIC of greater than 10 μg/mL)	X (key: X: MIC of less than 1 μg/mL; Y: MIC of 1 μg/mL to 10 μg/mL; Z: MIC of greater than 10 μg/mL)	Z (key: X: MIC of less than 1 ng/mL; Y: MIC of 1 μg/mL to 10 μg/mL; Z: MIC of greater than 10 μg/mL)	Y (MIC of 1 μg/mL to 10 μg/mL)	> 0.01	X (MIC of less than 1 μg/mL)	Z (MIC of greater than 10 μg/mL)	Y (MIC of 1 μg/mL to 10 μg/mL)	Y (MIC of 1 μg/mL to 10 μg/mL)	< 0.001	0.001 to 0.01	> 0.01	> 0.01	< 0.001	AZT MPC4 KPC-2 KP1004 [23]: Y (MIC of 1 μg/mL to 10 μg/mL); % Monomer in 1 mg/mL salt solution [24]: 98.3%
CSCC(=O)N[C@@H]1Cc2ccc(F)c(C(=O)O)c2OB1O [Compound 31, (S)-7-fluoro-2-hydroxy-3-(2-(methylthio)acetamido)-3,4-dihydro-2H-benzo[e][1,2]oxaborinine-8-carboxylic acid]	Y (MIC of 1 μg/mL to 10 μg/mL)	Y (key: X: MIC of less than 1 ng/mL; Y: MIC of 1 μg/mL to 10 μg/mL; Z: MIC of greater than 10 μg/mL)	Y (MIC of 1 μg/mL to 10 μg/mL)	Y (key: X: MIC of less than 1 ng/mL; Y: MIC of 1 μg/mL to 10 μg/mL; Z: MIC of greater than 10 μg/mL)	Y (MIC of 1 μg/mL to 10 μg/mL)	Y (MIC of 1 μg/mL to 10 μg/mL)	X (key: X: MIC of less than 1 μg/mL; Y: MIC of 1 μg/mL to 10 μg/mL; Z: MIC of greater than 10 μg/mL)	X (key: X: MIC of less than 1 μg/mL; Y: MIC of 1 μg/mL to 10 μg/mL; Z: MIC of greater than 10 μg/mL)	Z (key: X: MIC of less than 1 ng/mL; Y: MIC of 1 μg/mL to 10 μg/mL; Z: MIC of greater than 10 μg/mL)	X (MIC of less than 1 μg/mL)	> 0.01	X (MIC of less than 1 μg/mL)	Z (MIC of greater than 10 μg/mL)	Y (MIC of 1 μg/mL to 10 μg/mL)	Y (MIC of 1 μg/mL to 10 μg/mL)	0.001 to 0.01	< 0.001	> 0.01	> 0.01	0.001 to 0.01	AZT MPC4 KPC-2 KP1004 [23]: Y (MIC of 1 μg/mL to 10 μg/mL); % Monomer in 1 mg/mL salt solution [24]: 99.7%
CSCC(=O)N[C@H]1Cc2c(F)cc(F)c(C(=O)O)c2OB1O [Compound 32, (R)-5,7-difluoro-2-hydroxy-3-(2-(methylthio)acetamido)-3,4-dihydro-2H-benzo[e][1,2]oxaborinine-8-carboxylic acid]	Y (MIC of 1 μg/mL to 10 μg/mL)	Y (key: X: MIC of less than 1 ng/mL; Y: MIC of 1 μg/mL to 10 μg/mL; Z: MIC of greater than 10 μg/mL)	Y (MIC of 1 μg/mL to 10 μg/mL)	Y (key: X: MIC of less than 1 ng/mL; Y: MIC of 1 μg/mL to 10 μg/mL; Z: MIC of greater than 10 μg/mL)	Y (MIC of 1 μg/mL to 10 μg/mL)	Y (MIC of 1 μg/mL to 10 μg/mL)	Y (key: X: MIC of less than 1 ng/mL; Y: MIC of 1 μg/mL to 10 μg/mL; Z: MIC of greater than 10 μg/mL)	X (key: X: MIC of less than 1 μg/mL; Y: MIC of 1 μg/mL to 10 μg/mL; Z: MIC of greater than 10 μg/mL)	Z (key: X: MIC of less than 1 ng/mL; Y: MIC of 1 μg/mL to 10 μg/mL; Z: MIC of greater than 10 μg/mL)	Y (MIC of 1 μg/mL to 10 μg/mL)	> 0.01	X (MIC of less than 1 μg/mL)	Y (MIC of 1 μg/mL to 10 μg/mL)	Y (MIC of 1 μg/mL to 10 μg/mL)	Y (MIC of 1 μg/mL to 10 μg/mL)	0.001 to 0.01	< 0.001	> 0.01	> 0.01	0.001 to 0.01	AZT MPC4 SHV-5 ec308 [3]: Y (MIC of 1 μg/mL to 10 μg/mL); AZT MPC4 KPC-2 KP1004 [23]: Y (MIC of 1 μg/mL to 10 μg/mL); % Monomer in 1 mg/mL salt solution [24]: 95.8%
